Assay results from patent US20090123555A1, “Stimulateable Polymer Particles Exhibiting Reactive Functions, Method for the Production and the Use Thereof” (CENTRE NATIONAL DE LA RECHER CHE SCIENTIFIQUE, priority 2004, published 2009).

Test: Release of the active ingredient from the particle by lowering of the pH, followed by UV-visible spectrometry
Format: physicochemical
From the text: Once the particle was synthesised we verified by UV-visible spectrometry the possibility of releasing the medicament by simple lowering of the pH.

release of the medicament by simple lowering of the pH (lowering of the pH, release from the particle): progressive and controlled release
indomethacin salted out (released) from the particle (pH equal to 3, in 48 hours, indomethacin covalently bonded inside the particle (NB-PCL-POE-OMe stabilised latex)): more than 85%
SMILES: COc1ccc2c(c1)c(CC(=O)O)c(C)n2C(=O)c1ccc(Cl)cc1 [indomethacin]
